Test results reported in ChEMBL document CHEMBL3112435, “1H-1,2,3-Triazole-tethered isatin-7-chloroquinoline and 3-hydroxy-indole-7-chloroquinoline conjugates: synthesis and antimalarial evaluation” (Bioorg Med Chem Lett, 2014).

Test system: Plasmodium falciparum
Assay: Antimalarial activity against chloroquine-resistant Plasmodium falciparum W2 after 48 hrs by flow cytometry
Format: functional, organism-based
Conditions: W2, 48 h

Structure (SMILES) | IC50
O=C1C(O)c2cc(Cl)ccc2N1CCCn1cc(COc2ccc(CNNc3ccnc4cc(Cl)ccc34)cc2)nn1 (configuration not stated) | 350 nM
O=Cc1ccc(OCc2cn(CCCCN3C(=O)C(=O)c4cc(Cl)ccc43)nn2)cc1 | > 10000 nM
Cc1ccc2c(c1)C(=O)C(=O)N2CCCCn1cc(COc2ccc(/C=N/Nc3ccnc4cc(Cl)ccc34)cc2)nn1 | 204 nM
O=Cc1ccc(OCc2cn(CCCCN3C(=O)C(=O)c4cc(F)ccc43)nn2)cc1 | > 10000 nM
O=Cc1ccc(OCc2cn(CCCN3C(=O)C(=O)c4ccccc43)nn2)cc1 | > 10000 nM
O=C1C(=O)N(CCCCn2cc(COc3ccc(/C=N/Nc4ccnc5cc(Cl)ccc45)cc3)nn2)c2ccc(Cl)cc21 | 141 nM
O=C1C(=O)N(CCCn2cc(COc3ccc(/C=N/Nc4ccnc5cc(Cl)ccc45)cc3)nn2)c2ccc(F)cc21 | 288 nM
C[C@@H]1CC[C@H]2[C@@H](C)C(=O)O[C@@H]3O[C@@]4(C)CC[C@@H]1[C@]32OO4 [ARTEMISININ] | 7 nM
O=C1C(O)c2cc(F)ccc2N1CCn1cc(COc2ccc(CNNc3ccnc4cc(Cl)ccc34)cc2)nn1 (configuration not stated) | 112 nM
O=Cc1ccc(OCc2cn(CCN3C(=O)C(=O)c4ccccc43)nn2)cc1 | > 10000 nM
O=C1C(O)c2cc(Cl)ccc2N1CCn1cc(COc2ccc(CNNc3ccnc4cc(Cl)ccc34)cc2)nn1 (configuration not stated) | 182 nM
Cc1ccc2c(c1)C(=O)C(=O)N2CCn1cc(COc2ccc(C=O)cc2)nn1 | > 10000 nM
O=Cc1ccc(OCc2cn(CCN3C(=O)C(=O)c4cc(Cl)ccc43)nn2)cc1 | > 10000 nM
O=C1C(O)c2ccccc2N1CCCCn1cc(COc2ccc(CNNc3ccnc4cc(Cl)ccc34)cc2)nn1 (configuration not stated) | 69 nM
O=C1C(=O)N(CCCCn2cc(COc3ccc(/C=N/Nc4ccnc5cc(Cl)ccc45)cc3)nn2)c2ccccc21 | 119 nM
Cc1ccc2c(c1)C(O)C(=O)N2CCn1cc(COc2ccc(CNNc3ccnc4cc(Cl)ccc34)cc2)nn1 (configuration not stated) | 320 nM
O=C1C(O)c2ccccc2N1CCn1cc(COc2ccc(CNNc3ccnc4cc(Cl)ccc34)cc2)nn1 (configuration not stated) | 128 nM
Cc1ccc2c(c1)C(=O)C(=O)N2CCn1cc(COc2ccc(/C=N/Nc3ccnc4cc(Cl)ccc34)cc2)nn1 | 185 nM
O=Cc1ccc(OCc2cn(CCN3C(=O)C(=O)c4cc(F)ccc43)nn2)cc1 | > 10000 nM

Structure (SMILES) | IC50
Cc1ccc2c(c1)C(=O)C(=O)N2CCCCn1cc(COc2ccc(C=O)cc2)nn1 | 6420 nM
O=C1C(=O)N(CCCn2cc(COc3ccc(/C=N/Nc4ccnc5cc(Cl)ccc45)cc3)nn2)c2ccc(Cl)cc21 | 346 nM
O=Cc1ccc(OCc2cn(CCCN3C(=O)C(=O)c4cc(F)ccc43)nn2)cc1 | > 10000 nM
O=C1C(=O)N(CCCCn2cc(COc3ccc(/C=N/Nc4ccnc5cc(Cl)ccc45)cc3)nn2)c2ccc(F)cc21 | 134 nM
O=C1C(O)c2cc(F)ccc2N1CCCCn1cc(COc2ccc(CNNc3ccnc4cc(Cl)ccc34)cc2)nn1 (configuration not stated) | 164 nM
Cc1ccc2c(c1)C(=O)C(=O)N2CCCn1cc(COc2ccc(/C=N/Nc3ccnc4cc(Cl)ccc34)cc2)nn1 | 163 nM
Cc1ccc2c(c1)C(=O)C(=O)N2CCCn1cc(COc2ccc(C=O)cc2)nn1 | > 10000 nM
O=Cc1ccc(OCc2cn(CCCCN3C(=O)C(=O)c4ccccc43)nn2)cc1 | > 10000 nM
O=C1C(O)c2ccccc2N1CCCn1cc(COc2ccc(CNNc3ccnc4cc(Cl)ccc34)cc2)nn1 (configuration not stated) | 339 nM
O=C1C(O)c2cc(Cl)ccc2N1CCCCn1cc(COc2ccc(CNNc3ccnc4cc(Cl)ccc34)cc2)nn1 (configuration not stated) | 168 nM
O=C1C(=O)N(CCCn2cc(COc3ccc(/C=N/Nc4ccnc5cc(Cl)ccc45)cc3)nn2)c2ccccc21 | 165 nM
Cc1ccc2c(c1)C(O)C(=O)N2CCCn1cc(COc2ccc(CNNc3ccnc4cc(Cl)ccc34)cc2)nn1 (configuration not stated) | 509 nM
O=C1C(=O)N(CCn2cc(COc3ccc(/C=N/Nc4ccnc5cc(Cl)ccc45)cc3)nn2)c2ccc(F)cc21 | 190 nM
O=Cc1ccc(OCc2cn(CCCN3C(=O)C(=O)c4cc(Cl)ccc43)nn2)cc1 | > 10000 nM
O=C1C(=O)N(CCn2cc(COc3ccc(/C=N/Nc4ccnc5cc(Cl)ccc45)cc3)nn2)c2ccc(Cl)cc21 | 263 nM
Cc1ccc2c(c1)C(O)C(=O)N2CCCCn1cc(COc2ccc(CNNc3ccnc4cc(Cl)ccc34)cc2)nn1 (configuration not stated) | 326 nM
O=C1C(O)c2cc(F)ccc2N1CCCn1cc(COc2ccc(CNNc3ccnc4cc(Cl)ccc34)cc2)nn1 (configuration not stated) | 206 nM
O=C1C(=O)N(CCn2cc(COc3ccc(/C=N/Nc4ccnc5cc(Cl)ccc45)cc3)nn2)c2ccccc21 | 118 nM
